Measured values: patent US6906193B2, “N-type calcium channel antagonists for the treatment of pain” (AstraZeneca AB, priority 2000, dated 2005)
Like-named read-outs stand apart in the source and are kept apart here.

How the values were obtained:
N-type calcium channel = N-type calcium channel (Homo sapiens, UniProt Q00975); assay: N-channel FLIPR assay; format: cell-based
[1] = tested on: formalin-induced nocifensive behaviours; assay: Formalin test; format: in vivo, rats; details: Rattus norvegicus, read-out: IPT (Formalin)
Protocol: The Formalin test assesses the inhibitory effects of orally administered N-type calcium channel antagonists on formalin-induced nocifensive behaviours in rats. The formalin test is a well established pain test (Dubuisson and Dennis, 1977; Wheeler-Aceto et al., 1990; Coderre et al., 1993). This test consists of two distinct phases of formalin-induced behaviour. The first phase response, occurring between 0 to 5 minutes, is caused by acute nociception to the noxious chemical (formalin) injected into the paw. This is followed by a quiescent period of between 5 to 15 min post injection. A second phase response, occurring after 15 minutes and lasting up to 60 minutes, is caused by sensitisation of the central neurons in the dorsal horn. Central sensitisation augments the noxious afferent input and a stronger pain barrage is transmitted into the brain. Inhibition of the second phase response is indicative of a central mechanism of drug action.
The procedure for the formalin test is as follows: male rats are placed in a plexiglass chamber and observed for 30-45 min. to observe their baseline activity. Multiple groups of animals are pretreated with either vehicle or different doses of a test compound. Animals are dosed with the drug of interest either 40 min., if by the intraperitoneal route, or 90 min., if by the oral route, prior to injection of formalin into a hind paw (under the dorsal skin; 0.05 mL of sterile 5% formalin). The number of paw flinches and licks during first phase (0-5 min.) and second phase (20-35 min.) are scored and recorded. Flinch and lick responses are calculated as percentage of inhibition compared with the mean score of a saline control group. Drug potencies are expressed as the dose which causes 50% of the maximum inhibitory effect (“ID50”). Student t-tests are used for statistical analysis to determine the significance of drug effects. Compounds are considered active based on their ability to inhibit the flinch response.

L-type calcium channel = assay: L-channel FLIPR assay; format: cell-based, human; details: 5-point concentration-response curves; SK-N-SH cells
Protocol: An immortalized cell line, SK-N-SH, derived from human neuroblastoma cells (ATCC product # HTB-11) was used for all experiments. Cells were grown in T75 flasks containing Eagle's minimum essential medium (MEM) w/Earle's salts, with 0.1 mM non-essential amino acids, 1.0 mM Na pyruvate and 10% fetal bovine serum (FBS; Cat. # SLM-034-B, Specialty Media). Cells were grown to 100% confluency (by visual microscopic estimation) before sub-culture. Cells were sub-cultured at a ratio of 1:3 by first rinsing with 3 mL PBS, replacing the PBS with PBS containing 0.25% trypsin until the cells detached from the surface. 1 mL of the resulting suspension was then added to a new flask containing 10 mL fresh media. Cells were then incubated (37° C., 5% CO2), and media was exchanged about 3 days after subculturing.
Cells used for experiments were at the 100% confluency growth stage. Each flask provided enough cells for three 96-well plates. […]
Maximum signal (L-channel+non-specific): 12 wells received 20 μL buffer addition only (no nitrendipine) in the first solution addition sequence to define the maximal K^+-evoked Ca^2+ increase mediated by L-channels+non-specific (non-L-channel mediated fluorescence increase). The coefficient of variation amongst these wells for the K^+-evoked peak increase in fluorescence units was typically less than 12%. […]

pain = details: in vivo; cited from earlier work

Chain of N-type calcium channel (Q00975 whole entry): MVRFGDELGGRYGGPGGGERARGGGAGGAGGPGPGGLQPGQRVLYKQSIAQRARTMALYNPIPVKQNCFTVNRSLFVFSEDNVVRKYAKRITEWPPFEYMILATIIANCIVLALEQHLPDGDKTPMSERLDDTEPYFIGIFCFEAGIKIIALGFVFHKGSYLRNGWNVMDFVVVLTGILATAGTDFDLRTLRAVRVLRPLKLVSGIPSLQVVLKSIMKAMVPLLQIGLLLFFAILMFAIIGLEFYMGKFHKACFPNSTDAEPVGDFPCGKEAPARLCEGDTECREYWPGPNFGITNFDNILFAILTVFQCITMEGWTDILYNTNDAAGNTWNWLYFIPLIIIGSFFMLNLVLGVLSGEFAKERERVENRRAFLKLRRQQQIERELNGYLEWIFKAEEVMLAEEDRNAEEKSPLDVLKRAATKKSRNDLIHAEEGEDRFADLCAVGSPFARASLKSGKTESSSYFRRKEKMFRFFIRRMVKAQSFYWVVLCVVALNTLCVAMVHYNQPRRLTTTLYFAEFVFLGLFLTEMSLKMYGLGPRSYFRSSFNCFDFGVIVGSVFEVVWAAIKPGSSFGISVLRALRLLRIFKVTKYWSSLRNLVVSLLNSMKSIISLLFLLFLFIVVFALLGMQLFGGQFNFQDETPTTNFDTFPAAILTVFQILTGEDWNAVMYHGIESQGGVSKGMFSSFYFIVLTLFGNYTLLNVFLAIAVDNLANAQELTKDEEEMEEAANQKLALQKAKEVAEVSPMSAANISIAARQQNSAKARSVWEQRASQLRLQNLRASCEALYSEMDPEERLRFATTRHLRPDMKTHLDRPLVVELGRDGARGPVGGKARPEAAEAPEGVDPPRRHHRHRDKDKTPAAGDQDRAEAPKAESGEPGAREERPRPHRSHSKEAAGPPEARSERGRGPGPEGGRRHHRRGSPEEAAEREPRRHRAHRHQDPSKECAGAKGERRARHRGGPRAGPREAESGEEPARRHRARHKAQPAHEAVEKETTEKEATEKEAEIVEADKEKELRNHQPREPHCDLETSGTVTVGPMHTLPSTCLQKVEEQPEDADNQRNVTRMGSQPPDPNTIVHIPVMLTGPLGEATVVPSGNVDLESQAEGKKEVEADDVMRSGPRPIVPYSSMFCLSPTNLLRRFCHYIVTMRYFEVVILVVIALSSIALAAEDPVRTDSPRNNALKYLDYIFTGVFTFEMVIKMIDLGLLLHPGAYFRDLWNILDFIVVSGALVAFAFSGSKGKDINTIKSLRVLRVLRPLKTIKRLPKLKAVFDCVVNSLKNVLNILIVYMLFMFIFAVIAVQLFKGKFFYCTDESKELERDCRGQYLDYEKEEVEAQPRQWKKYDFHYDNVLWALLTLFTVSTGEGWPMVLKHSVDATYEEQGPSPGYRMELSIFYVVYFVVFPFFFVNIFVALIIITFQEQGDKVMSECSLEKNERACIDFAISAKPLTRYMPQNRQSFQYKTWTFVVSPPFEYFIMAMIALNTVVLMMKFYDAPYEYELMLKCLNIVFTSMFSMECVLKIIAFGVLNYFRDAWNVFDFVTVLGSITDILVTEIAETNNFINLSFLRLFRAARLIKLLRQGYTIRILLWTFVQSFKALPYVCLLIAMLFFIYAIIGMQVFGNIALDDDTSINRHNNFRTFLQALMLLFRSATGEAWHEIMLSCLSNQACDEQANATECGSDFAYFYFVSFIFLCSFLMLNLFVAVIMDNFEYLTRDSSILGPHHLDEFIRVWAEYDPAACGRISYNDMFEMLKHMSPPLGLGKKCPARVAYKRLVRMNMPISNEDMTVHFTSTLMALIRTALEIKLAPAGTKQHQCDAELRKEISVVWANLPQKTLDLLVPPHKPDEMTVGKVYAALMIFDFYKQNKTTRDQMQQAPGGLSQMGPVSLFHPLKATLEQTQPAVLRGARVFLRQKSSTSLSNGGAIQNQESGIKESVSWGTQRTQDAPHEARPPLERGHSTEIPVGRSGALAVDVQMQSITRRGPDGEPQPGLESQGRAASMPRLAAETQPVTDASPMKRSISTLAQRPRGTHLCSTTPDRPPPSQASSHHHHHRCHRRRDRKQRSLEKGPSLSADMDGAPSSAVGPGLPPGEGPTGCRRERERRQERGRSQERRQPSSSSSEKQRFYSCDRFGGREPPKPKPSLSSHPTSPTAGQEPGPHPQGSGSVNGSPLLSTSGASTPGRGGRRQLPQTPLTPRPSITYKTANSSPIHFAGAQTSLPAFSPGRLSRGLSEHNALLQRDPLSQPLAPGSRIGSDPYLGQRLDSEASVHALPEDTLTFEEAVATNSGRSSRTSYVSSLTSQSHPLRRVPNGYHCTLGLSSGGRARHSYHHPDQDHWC
Chain of N-type calcium channel (P54289 25-956 partner limits assumed): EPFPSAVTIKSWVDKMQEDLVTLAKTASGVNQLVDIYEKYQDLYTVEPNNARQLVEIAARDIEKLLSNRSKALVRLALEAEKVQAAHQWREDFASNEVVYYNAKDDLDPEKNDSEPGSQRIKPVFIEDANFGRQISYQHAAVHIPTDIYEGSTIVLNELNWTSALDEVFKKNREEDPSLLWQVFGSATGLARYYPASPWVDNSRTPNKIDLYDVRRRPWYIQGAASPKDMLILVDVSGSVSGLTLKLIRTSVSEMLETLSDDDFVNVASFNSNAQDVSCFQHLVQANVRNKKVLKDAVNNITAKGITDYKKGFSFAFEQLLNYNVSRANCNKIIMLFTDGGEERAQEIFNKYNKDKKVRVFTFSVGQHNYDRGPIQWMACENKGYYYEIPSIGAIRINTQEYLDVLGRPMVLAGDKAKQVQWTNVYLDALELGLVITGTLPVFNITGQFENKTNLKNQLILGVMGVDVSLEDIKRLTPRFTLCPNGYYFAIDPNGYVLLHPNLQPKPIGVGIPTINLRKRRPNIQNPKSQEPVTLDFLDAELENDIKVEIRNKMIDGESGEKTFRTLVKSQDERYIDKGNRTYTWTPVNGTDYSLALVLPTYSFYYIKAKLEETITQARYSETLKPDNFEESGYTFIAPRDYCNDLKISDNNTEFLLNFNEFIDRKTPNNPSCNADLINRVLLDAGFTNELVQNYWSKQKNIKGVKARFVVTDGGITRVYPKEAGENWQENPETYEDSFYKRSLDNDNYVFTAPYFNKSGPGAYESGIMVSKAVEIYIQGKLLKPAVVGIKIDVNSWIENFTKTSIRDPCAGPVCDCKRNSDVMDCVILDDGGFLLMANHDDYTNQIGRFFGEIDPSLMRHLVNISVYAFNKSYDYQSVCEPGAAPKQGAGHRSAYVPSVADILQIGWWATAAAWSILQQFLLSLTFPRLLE
Chain of N-type calcium channel (P54289 957-1103 partner limits assumed): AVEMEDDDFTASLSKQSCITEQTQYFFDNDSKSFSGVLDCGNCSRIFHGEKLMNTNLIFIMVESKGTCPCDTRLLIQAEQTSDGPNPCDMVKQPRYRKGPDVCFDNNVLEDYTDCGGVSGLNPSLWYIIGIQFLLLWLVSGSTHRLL
Chain of N-type calcium channel (Q02641 whole entry partner): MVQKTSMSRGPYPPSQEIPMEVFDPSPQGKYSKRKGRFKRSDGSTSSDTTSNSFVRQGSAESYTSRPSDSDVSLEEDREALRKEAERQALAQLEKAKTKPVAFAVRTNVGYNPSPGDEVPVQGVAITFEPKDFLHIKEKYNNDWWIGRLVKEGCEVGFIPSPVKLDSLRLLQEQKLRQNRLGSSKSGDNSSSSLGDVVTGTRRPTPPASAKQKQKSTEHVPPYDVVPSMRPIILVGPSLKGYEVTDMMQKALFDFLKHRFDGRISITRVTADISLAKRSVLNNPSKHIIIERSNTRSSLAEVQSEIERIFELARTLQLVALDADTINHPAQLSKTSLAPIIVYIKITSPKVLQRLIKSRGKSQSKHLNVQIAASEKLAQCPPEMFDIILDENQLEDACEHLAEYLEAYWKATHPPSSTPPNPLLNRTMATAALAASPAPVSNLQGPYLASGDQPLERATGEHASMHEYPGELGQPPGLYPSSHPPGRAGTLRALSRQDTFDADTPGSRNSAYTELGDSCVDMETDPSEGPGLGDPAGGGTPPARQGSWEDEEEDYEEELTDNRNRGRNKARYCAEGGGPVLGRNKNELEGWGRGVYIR

| Compound | IC50 (N-type calcium channel) | other results |
| --- | --- | --- |
| COc1ccc(-c2cc(C(=O)O)c3ccccc3n2)cc1 [Example 1, 2-(4-methoxyphenyl)-4-quinolinecarboxylic acid] | > 10 µM | – |
| O=C(O)c1cc(-c2ccc(Cl)cc2)nc2ccccc12 [Example 2, 2-(4-chlorophenyl)-4-quinolinecarboxylic acid] | > 10 µM | – |
| Nc1ccc2nc(-c3ccccc3)cc(N)c2c1 [Example 3, 2-phenyl-4,6-quinolinediamine] | 3.5 µM | inhibition in vivo at 30 mg/kg ([1]; ip, 30 mg/kg, i.p., rats): 45%; inhibition in vivo at 30 mg/kg ([1]; po, 30 mg/kg, p.o., rats): 28% |
| COc1cccc2c(C(=O)O)cc(-c3ccccc3)nc12 [Example 4, 8-methoxy-2-phenyl-4-quinolinecarboxylic acid] | > 10 µM | – |
| COc1ccc(-c2cc(N)c3ccccc3n2)cc1 [Example 5, 2-(4-methoxyphenyl)-4-quinolinamine] | 4.8 µM | – |
| Nc1cc(-c2ccccc2)nc2ccccc12 [Example 6, 2-phenyl-4-quinolinamine] | 4.4 µM | inhibition in vivo at 30 mg/kg ([1]; ip, 30 mg/kg, i.p., rats): 88% |
| Cc1ccc(-c2cc(C(=O)O)c3ccccc3n2)cc1 [Example 7, 2-(4-methylphenyl)-4-quinolinecarboxylic acid] | > 10 µM | – |
| O=C(O)c1cc(-c2ccc(F)cc2)nc2ccccc12 [Example 8, 2-(4-fluorophenyl)-4-quinolinecarboxylic acid] | > 10 µM | – |
| Nc1cc(-c2cccc(F)c2)nc2ccccc12 [Example 9, 2-(3-fluorophenyl)-4-quinolinamine] | 2.1 µM | inhibition in vivo at 30 mg/kg ([1]; ip, 30 mg/kg, i.p., rats): 90%; inhibition in vivo at 30 mg/kg ([1]; po, 30 mg/kg, p.o., rats): 41% |
| CNc1cc(-c2cccc(F)c2)nc2ccccc12 [Example 10, 2-(3-fluorophenyl)-N-methyl-4-quinolinamine] | 1.6 µM | inhibition in vivo at 30 mg/kg ([1]; ip, 30 mg/kg, i.p., rats): 77%; inhibition in vivo at 30 mg/kg ([1]; po, 30 mg/kg, p.o., rats): 46% |
| CN(C)c1cc(-c2cccc(F)c2)nc2ccccc12 [Example 11, 2-(3-fluorophenyl)-N,N-dimethyl-4-quinolinamine] | 3 µM | inhibition in vivo at 30 mg/kg ([1]; ip, 30 mg/kg, i.p., rats): 64% |
| CC(=O)Nc1cc(/C=C/c2ccccc2)nc2ccccc12 [Example 12, N-{2-[(E)-2-phenylethenyl]-4-quinolinyl}acetamide] | 5 µM | – |
| Nc1cc(/C=C/c2ccccc2)nc2ccccc12 [Example 13, 2-[(E)-2-phenylethenyl]-4-quinolinamine] | 1.4 µM | – |
| Nc1cc(-c2cccs2)nc2ccccc12 [Example 14, 2-(2-thienyl)-4-quinolinamine] | 5.4 µM | inhibition in vivo at 30 mg/kg ([1]; ip, 30 mg/kg, i.p., rats): 25% |
| Cc1c(-c2ccccc2)nc2ccccc2c1C(=O)O [Example 15, 3-methyl-2-phenyl-4-quinolinecarboxylic acid] | > 10 µM | – |
| Cc1c(-c2ccccc2)nc2ccccc2c1N [Example 16, 3-methyl-2-phenyl-4-quinolinamine] | 3.6 µM | inhibition in vivo at 30 mg/kg ([1]; ip): 91%; inhibition in vivo at 30 mg/kg ([1]; po): 11% |
| CC(=O)Nc1cc(/C=C/c2cccc(F)c2)nc2ccccc12 [Example 17, N-{2-[(E)-2-(3-fluorophenyl)ethenyl]-4-quinolinyl}acetamide] | 6.4 µM | – |
| Nc1cc(/C=C/c2cccc(F)c2)nc2ccccc12 [Example 18, 2-[(E)-2-(3-fluorophenyl)ethenyl]-4-quinolinamine] | 4.3 µM | inhibition in vivo at 30 mg/kg ([1]; ip, 30 mg/kg, i.p., rats): 19% |
| Cc1cc(C)c2c(N)cc(-c3ccccc3)nc2c1 [Example 19, 5,7-dimethyl-2-phenyl-4-quinolinamine] | 1.5 µM | – |
| Cc1cccc2c(N)cc(-c3ccccc3)nc12 [Example 20, 8-methyl-2-phenyl-4-quinolinamine] | 3.1 µM | – |

| Compound | IC50 (N-type calcium channel) | other results |
| --- | --- | --- |
| COc1ccc2nc(-c3ccccc3)cc(C(=O)O)c2c1 [Example 21, 6-methoxy-2-phenyl-4-quinolinecarboxylic acid] | > 10 µM | – |
| COc1ccc2nc(-c3ccccc3)cc(N)c2c1 [Example 22, 6-methoxy-2-phenyl-4-quinolinamine] | ~3 µM | inhibition in vivo at 30 mg/kg ([1]; ip, 30 mg/kg, i.p., rats): 16% |
| CCc1c(-c2ccccc2)nc2ccccc2c1C(=O)O [Example 23, 3-ethyl-2-phenyl-4-quinolinecarboxylic acid] | > 10 µM | – |
| Nc1ccc2nc(/C=C/c3ccccc3)cc(N)c2c1 [Example 24, 2-[(E)-2-phenylethenyl]-4,6-quinolinediamine] | 5.4 µM | – |
| Nc1ccc2nc(/C=C/c3cccc(F)c3)cc(N)c2c1 [Example 25, 2-[(E)-2-(3-fluorophenyl)ethenyl]-4,6-quinolinediamine] | 3.8 µM | – |
| COc1cccc2c(N)cc(-c3ccccc3)nc12 [Example 26, 8-methoxy-2-phenyl-4-quinolinamine] | 5 µM | – |
| Nc1c2c(nc3ccccc13)-c1ccccc1CC2 [Example 27, 5,6-dihydrobenzo[c]acridin-7-amine] | 1.1 µM | inhibition in vivo at 30 mg/kg ([1]; ip, 30 mg/kg, i.p., rats): 50% |
| O=C(O)c1cc(-c2ccccc2F)nc2ccccc12 [Example 28, 2-(2-fluorophenyl)-4-quinolinecarboxylic acid] | > 10 µM | – |
| CCc1c(-c2ccccc2)nc2ccccc2c1N [Example 29, 3-ethyl-2-phenyl-4-quinolinamine] | 1.2 µM | – |
| Nc1cc(-c2ccc(F)cc2)nc2ccccc12 [Example 30, 2-(4-fluorophenyl)-4-quinolinamine] | 3.4 µM | – |
| Nc1cc(-c2ccccc2F)nc2ccccc12 [Example 31, 2-(2-fluorophenyl)-4-quinolinamine] | 8 µM | – |
| Cc1ccc(-c2cc(N)c3ccccc3n2)cc1 [Example 32, 2-(4-methylphenyl)-4-quinolinamine] | 3.1 µM | – |
| Cc1cccc(-c2cc(C(=O)O)c3ccccc3n2)c1 [Example 33, 2-(3-methylphenyl)-4-quinolinecarboxylic acid] | > 10 µM | – |
| Nc1c2c(nc3ccccc13)-c1ccccc1CCC2 [Example 34, 6,7-dihydro-5H-benzo[6,7]cyclohepta[1,2-b]quinolin-8-amine] | 0.9 µM | – |
| CC(C)(C)c1cc(N)c2ccccc2n1 [Example 35, 2-tert-butyl-4-quinolinamine] | > 10 µM | – |
| Nc1cc(-c2ccc(Cl)cc2)nc2ccccc12 [Example 36, 2-(4-chlorophenyl)-4-quinolinamine] | 5.5 µM | – |
| Cc1cccc(-c2cc(N)c3ccccc3n2)c1 [Example 37, 2-(3-methylphenyl)-4-quinolinamine] | 1.2 µM | inhibition in vivo at 30 mg/kg ([1]; ip, 30 mg/kg, i.p., rats): 47%; inhibition in vivo at 30 mg/kg ([1]; po, 30 mg/kg, p.o., rats): 13% |
| CCOC(=O)C1=C(C)NC(C)=C(C(=O)OC)C1c1cccc([N+](=O)[O-])c1 (stereo not shown) [nitrendipine] | – | IC50 (L-type calcium channel): 0.03 µM |
| conotoxin MVIIA | – | success rate for the treatment of pain (pain): ~85% |
